The source of these data is US20250354195A1, “METHOD OF SCREENING” (UNIVERSITY OF DUNDEE, priority 2024, published 2025).

The target of this assay is T1, GSK3β (Homo sapiens, UniProt P49841+Q96SW2).
T1 construct: genetically engineered using CRISPR/Cas9 technology to endogenously tag GSK3p protein with HiBiT tag at the C-terminus; host or cells: HEK293 cells, CRISPR/Cas9 knock-in of HiBiT at the endogenous GSK3B locus
Description: High throughput screening for GSK3β-HiBiT targeted degradation (Nano-Glo HiBiT Lytic luminescence). In kind it is cell-based. Conditions: HEK293 cells with endogenously HiBiT-tagged GSK3β, 24 h incubation, products of one-pot plate array (FIG. 1, Method A); for DC50: 0.01-30 μM, read-out: DC50 (half-maximal degradation concentration). On the procedure: High throughput Screening for GSK3 β-HiBiTL: Test compounds were transferred into Echo plate (Beckman, 001-12782, Echo LDV384) using BRAVO automated liquid handling platform which serves as source plate (10 mM stocks in DMSO). Serial dilutions of the compounds were done using Echo550 liquid handler as 30 μM, 10 μM, 3 μM, 1 μM, 0.3 μM, 0.1 μM, 0.03 μM and 0.01 μM in final concentrations in assay plates. One column of each assay plate was reserved for DMSO control treatments. After compounds were serially diluted in assay plates, HEK293 cells (CRL-1573, ATCC) genetically engineered using CRISPR/Cas9 technology to endogenously tag GSK3p protein with HiBiT tag at the C-terminus (Schwinn et al., 2018, CRISPR-mediated tagging of endogenous proteins with a luminescent peptide, ACS Chem. Biol., 13(2), 467-74) were seeded at a density of 5000 cells/well in 50 μL complete media in 384-well TC-grade white plates (Perkin Elmer, Culturplate, 6007619) with the help of Multidrop Combi liquid dispenser and cells were incubated for 24 h with compounds at 37° C. in humidified incubators with 5% CO2. At the end of the treatment, equal volume of Nano-Glo HiBiT Lytic reagent (Promega N3030) supplied with Nano-Glo HiBiT Lytic substrate and LgBiT Protein were added into each well according to manufacturer's instructions, and cells were incubated on an orbital shaker for 15 seconds and for a further 15 minutes at room temperature. Luminescence signals were measured in an appropriate plate reader (PHERAstar FSX, BMG Labtech) (Dixon et al., 2016, NanoLuc complementation reporter optimized for accurate measurement of protein interactions in cells, ACS Chem. Biol., 11, 400-8). Changes in protein abundance upon compound treatment were further analysed by normalising raw luminescence values to DMSO values and fold changes were plotted using for parameter logistic regression with GraphPad Prism (10.1.2).
Furthermore, the present investigators have shown that bifunctional compounds manufactured using the method of the present disclosure may be effective in the uses of bifunctional compounds, for example as PROTACs in targeted protein degradation (TPD). […] GSK3p was targeted for degradation using a binder for GSK3p, and a binder for CRBN; the binders were comprised in molecules comprising moieties for reacting with the orthogonally reactive moieties of the linker. […] The “identifier” identifies the well of the multi-well plate that has been sampled, e.g., AHD2B-1-A1 relates to the top left well in FIG. 1. The DC50 provides an indication of the potency of the bifunctional compound in targeted degradation; Dmax provides an indication of the maximum possible degradation. The use of these metrics is further described in Flexible Fitting of PROTAC Concentration-Response Curves with Changepoint Gaussian Processes, Semenova et al., SLAS Discovery, 2021, 26, 1212-1224.

T1 sequence (P49841 whole entry): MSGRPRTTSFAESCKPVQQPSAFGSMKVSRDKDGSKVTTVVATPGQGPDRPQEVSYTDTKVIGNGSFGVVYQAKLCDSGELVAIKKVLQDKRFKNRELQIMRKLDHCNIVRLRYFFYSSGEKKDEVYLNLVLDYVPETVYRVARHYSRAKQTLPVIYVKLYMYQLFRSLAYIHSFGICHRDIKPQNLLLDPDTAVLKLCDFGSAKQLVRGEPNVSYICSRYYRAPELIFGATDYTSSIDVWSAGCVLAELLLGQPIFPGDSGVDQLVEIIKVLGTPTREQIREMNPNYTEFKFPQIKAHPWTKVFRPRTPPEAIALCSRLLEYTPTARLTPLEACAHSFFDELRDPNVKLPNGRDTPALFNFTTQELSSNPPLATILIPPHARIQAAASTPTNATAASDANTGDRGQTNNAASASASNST
T1 sequence (Q96SW2 whole entry): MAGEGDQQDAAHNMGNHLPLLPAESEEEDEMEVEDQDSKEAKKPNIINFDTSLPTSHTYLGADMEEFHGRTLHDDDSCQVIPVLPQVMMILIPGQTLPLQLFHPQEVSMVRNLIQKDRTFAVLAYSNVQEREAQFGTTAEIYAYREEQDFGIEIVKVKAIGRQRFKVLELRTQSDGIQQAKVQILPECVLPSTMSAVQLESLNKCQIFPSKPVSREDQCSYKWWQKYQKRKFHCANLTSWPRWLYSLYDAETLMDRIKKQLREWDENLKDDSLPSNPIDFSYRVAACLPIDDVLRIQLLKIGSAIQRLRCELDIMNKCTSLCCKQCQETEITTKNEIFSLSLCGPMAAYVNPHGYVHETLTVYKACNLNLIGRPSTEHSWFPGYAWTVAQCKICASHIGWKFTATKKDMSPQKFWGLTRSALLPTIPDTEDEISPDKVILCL
T1 sequence (Q16531 whole entry partner): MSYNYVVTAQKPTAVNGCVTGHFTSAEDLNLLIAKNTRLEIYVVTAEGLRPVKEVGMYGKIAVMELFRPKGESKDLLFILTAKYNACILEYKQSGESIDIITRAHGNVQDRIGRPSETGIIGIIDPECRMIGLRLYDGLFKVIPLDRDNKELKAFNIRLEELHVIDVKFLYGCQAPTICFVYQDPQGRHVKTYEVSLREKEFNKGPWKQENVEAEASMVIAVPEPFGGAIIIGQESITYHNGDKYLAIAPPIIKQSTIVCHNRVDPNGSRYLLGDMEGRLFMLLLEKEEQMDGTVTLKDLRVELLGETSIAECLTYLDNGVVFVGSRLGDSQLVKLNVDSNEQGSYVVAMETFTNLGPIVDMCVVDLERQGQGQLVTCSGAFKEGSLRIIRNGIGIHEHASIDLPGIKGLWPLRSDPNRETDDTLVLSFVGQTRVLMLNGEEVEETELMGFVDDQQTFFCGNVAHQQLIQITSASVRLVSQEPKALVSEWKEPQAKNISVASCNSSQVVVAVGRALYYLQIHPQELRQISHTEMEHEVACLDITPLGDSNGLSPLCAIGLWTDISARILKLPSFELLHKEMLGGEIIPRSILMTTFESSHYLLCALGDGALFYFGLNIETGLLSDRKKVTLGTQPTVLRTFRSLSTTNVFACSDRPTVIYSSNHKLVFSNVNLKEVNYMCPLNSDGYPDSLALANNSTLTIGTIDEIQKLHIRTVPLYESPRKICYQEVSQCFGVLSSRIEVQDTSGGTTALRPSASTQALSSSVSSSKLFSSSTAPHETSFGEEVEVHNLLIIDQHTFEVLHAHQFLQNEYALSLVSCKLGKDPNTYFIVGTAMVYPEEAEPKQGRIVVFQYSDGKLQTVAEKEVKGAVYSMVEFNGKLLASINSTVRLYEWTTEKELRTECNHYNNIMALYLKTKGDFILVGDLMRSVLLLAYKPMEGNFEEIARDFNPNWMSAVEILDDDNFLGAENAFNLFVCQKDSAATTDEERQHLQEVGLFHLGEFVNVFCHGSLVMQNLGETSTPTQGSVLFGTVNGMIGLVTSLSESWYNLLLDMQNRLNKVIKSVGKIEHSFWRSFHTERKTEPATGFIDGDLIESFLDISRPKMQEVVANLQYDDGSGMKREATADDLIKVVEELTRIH

Regarding `COc1ccc(-c2ocnc2C(=O)NCCCn2cc(COCCOCCN3CCN(Cc4ccc(N5CCC(=O)NC5=O)cc4)CC3)nn2)cc1Cl` [AHD2B-1-G10], the DC50 was above 10 µM and the “Dmax (maximal effect)” value is recorded as below 30%.

In the case of `COc1ccc(-c2ocnc2C(=O)NCCCn2cc(CCCCN3CCN(Cc4ccc(C(=O)NC5CCC(=O)NC5=O)nc4)CC3)nn2)cc1Cl` (centres unmarked) [AHD2B-1-F1], the DC50 was above 10 µM and the “Dmax (maximal effect)” value is below 30%.

`COc1ccc(-c2ocnc2C(=O)NCCCn2cc(COc3ccc(CN4CC5(C4)CN(Cc4ccc(C(=O)NC6CCC(=O)NC6=O)c(F)c4)C5)cc3)nn2)cc1Cl` (centres unmarked) [AHD2B-1-C11]: the DC50 amounted to 1.9 µM and the “Dmax (maximal effect)” value turned out to be 56%.

Consider `COc1ccc(-c2ocnc2C(=O)NCCCn2cc(COc3ccc(CN4CC5(CN(CC(=O)N[C@H](C(=O)N6C[C@H](O)C[C@H]6C(=O)NCc6ccc(-c7scnc7C)cc6)C(C)(C)C)C5)C4)cc3)nn2)cc1Cl` [AHD2B-1-B11], for which the DC50 was above 10 µM and the “Dmax (maximal effect)” value is recorded as below 30%.

Consider `COc1ccc(-c2ocnc2C(=O)NCCCn2cc(COCCOCCN3CCN(Cc4cccc(N5CCC(=O)NC5=O)c4)CC3)nn2)cc1Cl` [AHD2B-1-A10], for which the DC50 is above 10 µM and the “Dmax (maximal effect)” value is listed as below 30%.

With `COc1ccc(-c2ocnc2C(=O)NCCCn2cc(CCCOc3ccc(CN4CCN(Cc5cccc(N6CCC(=O)NC6=O)c5)CC4)cc3)nn2)cc1Cl` [AHD2B-1-A4], the DC50 was above 10 µM and the “Dmax (maximal effect)” value is listed as below 30%.

For the compound `COc1ccc(-c2ocnc2C(=O)NCCCn2cc(COc3ccc(CN4CCC5(C4)CN(Cc4ccc(N6CCC(=O)NC6=O)cc4)C5)cc3)nn2)cc1Cl` [AHD2B-1-G6], the DC50 is above 10 µM and the “Dmax (maximal effect)” value is listed as below 30%.

For `COc1ccc(-c2ocnc2C(=O)NCCCn2cc(CCCN3CCN(Cc4ccc(C(=O)NC5CCC(=O)NC5=O)c(F)c4)CC3)nn2)cc1Cl` (centres unmarked) [AHD2B-1-C12], the DC50 is above 10 µM and the “Dmax (maximal effect)” value was below 30%.

As to `COc1ccc(-c2ocnc2C(=O)NCCCn2cc(CCCCCN3CCCN(Cc4ccc(C(=O)NC5CCC(=O)NC5=O)nc4)CC3)nn2)cc1Cl` (centres unmarked) [AHD2B-1-F9], the DC50 is above 10 µM and the “Dmax (maximal effect)” value is below 30%.

In the case of `COc1ccc(-c2ocnc2C(=O)NCCCn2cc(COc3ccc(CN4CCC5(C4)CN(CC(=O)N[C@H](C(=O)N4C[C@H](O)C[C@H]4C(=O)NCc4ccc(-c6scnc6C)cc4)C(C)(C)C)C5)cc3)nn2)cc1Cl` [AHD2B-1-B6], the DC50 was above 10 µM and the “Dmax (maximal effect)” value is on record as below 30%.

For the compound `COc1ccc(-c2ocnc2C(=O)NCCCn2cc(-c3cccc(CN4CCN(Cc5ccc(C(=O)NC6CCC(=O)NC6=O)nc5)CC4)n3)nn2)cc1Cl` (centres unmarked) [AHD2B-1-F8], the DC50 is above 10 µM and the “Dmax (maximal effect)” value was below 30%.

`COc1ccc(-c2ocnc2C(=O)NCCCn2cc(-c3ccc(CN4CCN(Cc5ccc6c(N7CCC(=O)NC7=O)nn(C)c6c5)CC4)cn3)nn2)cc1Cl` [AHD2B-1-D2]: the DC50 was below 0.25 µM and the “Dmax (maximal effect)” value amounted to 63%.

As for `COc1ccc(-c2ocnc2C(=O)NCCCn2cc(-c3ccc(CN4CCN(Cc5cccc(N6CCC(=O)NC6=O)c5)CC4)cn3)nn2)cc1Cl` [AHD2B-1-A2], the DC50 is above 10 µM and the “Dmax (maximal effect)” value was below 30%.

Take `COc1ccc(-c2ocnc2C(=O)NCCCn2cc(CCCCN3CCN(CC(=O)N[C@H](C(=O)N4C[C@H](O)C[C@H]4C(=O)NCc4ccc(-c5scnc5C)cc4)C(C)(C)C)CC3)nn2)cc1Cl` [AHD2B-1-B1]: the DC50 is above 10 µM and the “Dmax (maximal effect)” value is reported as below 30%.

In the case of `COc1ccc(-c2ocnc2C(=O)NCCCn2cc(CCCN3CCN(Cc4ccc(N5CCC(=O)NC5=O)cc4)CC3)nn2)cc1Cl` [AHD2B-1-G12], the DC50 is above 10 µM and the “Dmax (maximal effect)” value is below 30%.

On to `COc1ccc(-c2ocnc2C(=O)NCCCn2cc(CCCCN3CCN(Cc4ccc(N5CCC(=O)NC5=O)cc4)CC3)nn2)cc1Cl` [AHD2B-1-G1], for which the DC50 is above 10 µM and the “Dmax (maximal effect)” value was below 30%.

As for `COc1ccc(-c2ocnc2C(=O)NCCCn2cc(CCCCN3CCN(Cc4cccc(N5CCC(=O)NC5=O)c4)CC3)nn2)cc1Cl` [AHD2B-1-A1], the DC50 is above 10 µM and the “Dmax (maximal effect)” value is given as below 30%.

With `COc1ccc(-c2ocnc2C(=O)NCCCn2cc(CCCOc3ccc(CN4CCN(Cc5ccc(C(=O)NC6CCC(=O)NC6=O)c(F)c5)CC4)cc3)nn2)cc1Cl` (centres unmarked) [AHD2B-1-C4], the DC50 was below 0.25 µM and the “Dmax (maximal effect)” value was 53%.

`COc1ccc(-c2ocnc2C(=O)NCCCn2cc(CCCCCN3CCN(Cc4cccc(N5CCC(=O)NC5=O)c4)CC3)nn2)cc1Cl` [AHD2B-1-A7]: the DC50 was above 10 µM and the “Dmax (maximal effect)” value is on record as below 30%.

Consider `COc1ccc(-c2ocnc2C(=O)NCCCn2cc(COc3ccc(CN4CCC5(C4)CN(Cc4cccc(N6CCC(=O)NC6=O)c4)C5)cc3)nn2)cc1Cl` [AHD2B-1-A6], for which the DC50 is above 10 µM and the “Dmax (maximal effect)” value is below 30%.

For `COc1ccc(-c2ocnc2C(=O)NCCCn2cc(CCCCCN3CCN(Cc4ccc(N5CCC(=O)NC5=O)cc4)CC3)nn2)cc1Cl` [AHD2B-1-G7], the DC50 is above 10 µM and the “Dmax (maximal effect)” value is recorded as below 30%.

`COc1ccc(-c2ocnc2C(=O)NCCCn2cc(COC3CCN(CC(=O)N[C@H](C(=O)N4C[C@H](O)C[C@H]4C(=O)NCc4ccc(-c5scnc5C)cc4)C(C)(C)C)CC3)nn2)cc1Cl` [AHD2B-1-B5]: the DC50 is above 10 µM and the “Dmax (maximal effect)” value is given as below 30%.

Take `COc1ccc(-c2ocnc2C(=O)NCCCn2cc(COc3ccc(CN4CC5(C4)CN(Cc4ccc(C(=O)NC6CCC(=O)NC6=O)nc4)C5)cc3)nn2)cc1Cl` (centres unmarked) [AHD2B-1-F11]: the DC50 is above 10 µM and the “Dmax (maximal effect)” value is on record as below 30%.

For `COc1ccc(-c2ocnc2C(=O)NCCCn2cc(-c3cccc(CN4CCN(Cc5ccc(N6CCC(=O)NC6=O)cc5)CC4)n3)nn2)cc1Cl` [AHD2B-1-G8], the DC50 is above 10 µM and the “Dmax (maximal effect)” value is reported as below 30%.

With `COc1ccc(-c2ocnc2C(=O)NCCCn2cc(CCCOc3ccc(CN4CCN(Cc5ccc(N6CCC(=O)NC6=O)cc5)CC4)cc3)nn2)cc1Cl` [AHD2B-1-G4], the DC50 is above 10 µM and the “Dmax (maximal effect)” value is reported as below 30%.
